Assay results taken from ChEMBL document CHEMBL1148480, “Structure-activity studies of orexin a and orexin B at the human orexin 1 and orexin 2 receptors led to orexin 2 receptor selective and orexin 1 receptor preferring ligands” (J Med Chem, 2004).
Non-standard residues stand in square brackets, D forms with d. Residues, ends and D or L forms follow the SMILES beside them. pGlu = O=C1CC[C@@H](C(=O)O)N1; Abu = CC[C@H](N)C(=O)O

Molecular target: T1, Orexin/Hypocretin receptor type 1 (Homo sapiens, UniProt O43613)
T1 sequence (O43613 whole entry): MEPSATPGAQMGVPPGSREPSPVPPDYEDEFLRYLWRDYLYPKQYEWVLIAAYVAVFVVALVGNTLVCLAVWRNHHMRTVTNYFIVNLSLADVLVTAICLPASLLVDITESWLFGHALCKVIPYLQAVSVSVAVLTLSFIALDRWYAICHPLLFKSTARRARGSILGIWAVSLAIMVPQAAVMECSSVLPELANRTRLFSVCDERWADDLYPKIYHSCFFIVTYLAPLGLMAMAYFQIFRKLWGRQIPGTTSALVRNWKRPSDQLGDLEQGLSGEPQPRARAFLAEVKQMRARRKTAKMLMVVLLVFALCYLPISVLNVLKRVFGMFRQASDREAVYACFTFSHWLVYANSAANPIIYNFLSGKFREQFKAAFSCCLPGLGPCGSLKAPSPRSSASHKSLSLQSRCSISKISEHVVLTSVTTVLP
Assay: Effective agonist concentration to human orexin receptor type 1 determined using the Xlfit program
Format: functional

Which EC50 does the source give for `CC[C@H](C)[C@H](NC(=O)[C@H](C)NC(=O)[C@H](C)NC(=O)[C@H](C)NC(=O)[C@H](Cc1cnc[nH]1)NC(=O)[C@H](CC(N)=O)NC(=O)CNC(=O)[C@H](CO)NC(=O)[C@H](C)NC(=O)[C@H](CCC(N)=O)NC(=O)[C@H](CC(C)C)NC(=O)[C@H](CC(C)C)NC(=O)[C@H](CCCNC(=N)N)NC(=O)[C@H](CCC(N)=O)NC(=O)[C@H](CC(C)C)NC(=O)[C@H](CCCNC(=N)N)NC(=O)CNC(=O)[C@H](CCC(N)=O)NC(=O)[C@H](CC(C)C)NC(=O)CN)C(=O)N[C@@H](CC(C)C)C(=O)N[C@H](C(=O)N[C@@H](CCSC)C(=O)O)[C@@H](C)O` (H-GLQGRLQRLLQASGNHAAAILTM-OH) here?
The EC50 was > 1000 µM.

How did the EC50 turn out when `CC[C@H](C)[C@H](NC(=O)CNC(=O)[C@H](C)NC(=O)[C@H](C)NC(=O)[C@H](Cc1c[nH]cn1)NC(=O)[C@H](CC(N)=O)NC(=O)CNC(=O)[C@H](CO)NC(=O)[C@H](C)NC(=O)[C@H](CCC(N)=O)NC(=O)[C@H](CC(C)C)NC(=O)[C@@H]1CCCN1C(=O)[C@H](CCCN=C(N)N)NC(=O)[C@H](CCC(N)=O)NC(=O)[C@H](CC(C)C)NC(=O)[C@H](CCCN=C(N)N)NC(=O)CNC(=O)[C@H](CCC(N)=O)NC(=O)[C@H](CC(C)C)NC(=O)CN)C(=O)N[C@@H](CC(C)C)C(=O)N[C@H](C(=O)N[C@@H](CCSC)C(N)=O)[C@@H](C)O` (H-GLQGRLQRPLQASGNHAAGILTM-NH2) was run?
Its EC50 is > 1000 µM.

Which EC50 does the source give for `CC[C@H](C)[C@H](NC(=O)CNC(=O)[C@H](C)NC(=O)[C@H](C)NC(=O)[C@H](Cc1cnc[nH]1)NC(=O)[C@H](CC(N)=O)NC(=O)CNC(=O)[C@H](CO)NC(=O)[C@H](C)NC(=O)[C@H](CCC(N)=O)NC(=O)[C@H](CC(C)C)NC(=O)[C@H](CC(C)C)NC(=O)[C@H](CCCNC(=N)N)NC(=O)[C@H](CCC(N)=O)NC(=O)[C@@H]1CCCN1C(=O)[C@H](CCCNC(=N)N)NC(=O)CNC(=O)[C@H](CCC(N)=O)NC(=O)[C@H](CC(C)C)NC(=O)CN)C(=O)N[C@@H](CC(C)C)C(=O)N[C@H](C(=O)N[C@@H](CCSC)C(N)=O)[C@@H](C)O` (H-GLQGRPQRLLQASGNHAAGILTM-NH2) here?
The EC50 was > 1000 µM.

`CC[C@H](C)[C@H](NC(=O)CNC(=O)[C@H](C)NC(=O)[C@H](C)NC(=O)[C@H](Cc1c[nH]cn1)NC(=O)[C@H](CC(N)=O)NC(=O)CNC(=O)[C@H](CO)NC(=O)[C@H](C)NC(=O)[C@H](CCC(N)=O)NC(=O)[C@H](CC(C)C)NC(=O)[C@H](CC(C)C)NC(=O)[C@H](CCCN=C(N)N)NC(=O)[C@H](CCC(N)=O)NC(=O)[C@H](CC(C)C)NC(=O)[C@H](CCCN=C(N)N)NC(=O)[C@@H]1CCCN1C(=O)[C@H](CCC(N)=O)NC(=O)[C@H](CC(C)C)NC(=O)CN)C(=O)N[C@@H](CC(C)C)C(=O)N[C@H](C(=O)N[C@@H](CCSC)C(N)=O)[C@@H](C)O` (H-GLQPRLQRLLQASGNHAAGILTM-NH2) was tested. Which EC50 did it give?
Its EC50 is 4.46 µM.

Which EC50 does the source give for `CC[C@H](C)[C@H](NC(=O)CNC(=O)[C@H](C)NC(=O)[C@H](C)NC(=O)[C@H](Cc1c[nH]cn1)NC(=O)[C@H](CC(N)=O)NC(=O)CN)C(=O)N[C@@H](CC(C)C)C(=O)N[C@H](C(=O)N[C@@H](CC(C)C)C(N)=O)[C@@H](C)O` (H-GNHAAGILTL-NH2) here?
Its EC50 is > 1000 µM.

How did the EC50 turn out when `CC[C@H](C)[C@H](NC(=O)CNC(=O)[C@H](C)NC(=O)[C@H](C)NC(=O)[C@H](Cc1cnc[nH]1)NC(=O)[C@H](CC(N)=O)NC(=O)CNC(=O)[C@H](CO)NC(=O)[C@H](C)NC(=O)[C@H](CCC(N)=O)NC(=O)[C@H](CC(C)C)NC(=O)[C@H](CC(C)C)NC(=O)[C@H](CCCNC(=N)N)NC(=O)[C@H](CCC(N)=O)NC(=O)[C@H](CC(C)C)NC(=O)[C@H](CCCNC(=N)N)NC(=O)CNC(=O)[C@H](CCC(N)=O)NC(=O)[C@@H]1CCCN1C(=O)CN)C(=O)N[C@@H](CC(C)C)C(=O)N[C@H](C(=O)N[C@@H](CCSC)C(N)=O)[C@@H](C)O` (H-GPQGRLQRLLQASGNHAAGILTM-NH2) was run?
Its EC50 is 1.7 µM.

For `CC[C@H](C)[C@H](NC(=O)CNC(=O)[C@H](C)NC(=O)[C@H](C)NC(=O)[C@@H](N)Cc1cnc[nH]1)C(=O)N[C@@H](CC(C)C)C(=O)N[C@H](C(=O)N[C@@H](CC(C)C)C(N)=O)[C@@H](C)O` (H-HAAGILTL-NH2), which EC50 is on record?
The EC50 was > 1000 µM.

With `CC[C@H](C)[C@H](NC(=O)CNC(=O)[C@H](C)NC(=O)[C@H](C)NC(=O)[C@H](Cc1c[nH]cn1)NC(=O)[C@H](CC(N)=O)NC(=O)CNC(=O)[C@H](C)NC(=O)CNC(=O)[C@H](Cc1c[nH]cn1)NC(=O)[C@H](CC(C)C)NC(=O)[C@@H](N)CC(C)C)C(=O)N[C@@H](CC(C)C)C(=O)N[C@H](C(=O)N[C@@H](CC(C)C)C(N)=O)[C@@H](C)O` (H-LLHGAGNHAAGILTL-NH2) as the molecule, how does the EC50 read?
Its EC50 is > 1000 µM.

How did the EC50 turn out when `CC[C@H](C)[C@H](NC(=O)CNC(=O)[C@H](C)NC(=O)[C@H](C)NC(=O)[C@H](Cc1cnc[nH]1)NC(=O)[C@H](CC(N)=O)NC(=O)CNC(=O)[C@H](CO)NC(=O)[C@H](C)NC(=O)[C@H](CCC(N)=O)NC(=O)[C@H](CC(C)C)NC(=O)[C@@H](N)CC(C)C)C(=O)N[C@@H](CC(C)C)C(=O)N[C@H](C(=O)N[C@@H](CCSC)C(N)=O)[C@@H](C)O` (H-LLQASGNHAAGILTM-NH2) was run?
Its EC50 is > 1000 µM.

With `CC[C@H](C)[C@H](NC(=O)CNC(=O)[C@H](C)NC(=O)[C@H](C)NC(=O)[C@H](Cc1c[nH]cn1)NC(=O)[C@H](CC(N)=O)NC(=O)CNC(=O)[C@H](C)NC(=O)CNC(=O)[C@H](Cc1c[nH]cn1)NC(=O)[C@H](CC(C)C)NC(=O)[C@H](CC(C)C)NC(=O)[C@H](CCC(=O)O)NC(=O)[C@H](Cc1ccc(O)cc1)NC(=O)[C@H](CC(C)C)NC(=O)[C@H](CCCN=C(N)N)NC(=O)[C@H](CS)NC(=O)[C@H](CO)NC(=O)[C@H](CS)NC(=O)[C@@H](NC(=O)[C@H](CCCCN)NC(=O)[C@H](CCC(N)=O)NC(=O)[C@H](CCCN=C(N)N)NC(=O)[C@H](CS)NC(=O)[C@H](CS)NC(=O)[C@H](CC(=O)O)NC(=O)[C@@H]1CCCN1)[C@@H](C)O)C(=O)N[C@@H](CC(C)C)C(=O)N[C@H](C(=O)N[C@@H](CC(C)C)C(N)=O)[C@@H](C)O` (H-PDCCRQKTCSCRLYELLHGAGNHAAGILTL-NH2) as the molecule, how does the EC50 read?
The EC50 was 0.64 µM.

`CC[C@H](C)[C@H](NC(=O)CNC(=O)[C@H](C)NC(=O)[C@H](C)NC(=O)[C@H](Cc1cnc[nH]1)NC(=O)[C@H](CC(N)=O)NC(=O)CNC(=O)[C@H](CO)NC(=O)[C@H](C)NC(=O)[C@H](CCC(N)=O)NC(=O)[C@H](CC(C)C)NC(=O)[C@H](CC(C)C)NC(=O)[C@H](CCCNC(=N)N)NC(=O)[C@H](CCC(N)=O)NC(=O)[C@H](CC(C)C)NC(=O)[C@H](CCCNC(=N)N)NC(=O)CNC(=O)[C@@H](N)CCC(N)=O)C(=O)N[C@@H](CC(C)C)C(=O)N[C@H](C(=O)N[C@@H](CCSC)C(N)=O)[C@@H](C)O` (H-QGRLQRLLQASGNHAAGILTM-NH2) was tested. Which EC50 did it give?
The EC50 was 22.2 µM.

For `CC[C@H](NC(=O)[C@H](CO)NC(=O)[C@H](CS)NC(=O)[C@@H](NC(=O)[C@H](CCCCN)NC(=O)[C@H](CCC(N)=O)NC(=O)[C@H](CCCN=C(N)N)NC(=O)[C@H](CC)NC(=O)[C@H](CS)NC(=O)[C@H](CC(=O)O)NC(=O)[C@@H]1CCCN1C(=O)[C@H](CC(C)C)NC(=O)[C@@H]1CCCN1C(=O)[C@@H]1CCC(=O)N1)[C@@H](C)O)C(=O)N[C@@H](CCCN=C(N)N)C(=O)N[C@@H](CC(C)C)C(=O)N[C@@H](Cc1ccc(O)cc1)C(=O)N[C@@H](CCC(=O)O)C(=O)N[C@@H](CC(C)C)C(=O)N[C@@H](CC(C)C)C(=O)N[C@@H](Cc1c[nH]cn1)C(=O)NCC(=O)N[C@@H](C)C(=O)NCC(=O)N[C@@H](CC(N)=O)C(=O)N[C@@H](Cc1c[nH]cn1)C(=O)N[C@@H](C)C(=O)N[C@@H](C)C(=O)NCC(=O)N[C@H](C(=O)N[C@@H](CC(C)C)C(=O)N[C@H](C(=O)N[C@@H](CC(C)C)C(=O)O)[C@@H](C)O)[C@@H](C)CC` ([pGlu]PLPDC[Abu]RQKTCS[Abu]RLYELLHGAGNHAAGILTL-OH), which EC50 is on record?
Its EC50 is 1.34 µM.
